Source: EP0535104B1, “HETEROCYCLIC COMPOUNDS AND THEIR PREPARATION AND USE” (NOVO NORDISK A/S, priority 1990, dated 1992)

The molecules below were run on benzodiazepine receptors (assay: in vivo displacement of radioactive labelled flunitrazepam from benzodiazepine receptors). Conditions: dose which causes the specific binding of flunitrazepam to benzodiazepine receptors in a living brain to be reduced to 50% of the control value; test as described in US 4,774,245.
Description: The pharmaceutical properties of the compounds of the invention can be illustrated by determining their capability for displacing radioactive labelled flunitrazepam from benzodiazepine receptors.
The displacement activity of the compounds of the invention may be found by determining the ED50 value. The ED50 value represents the dose (mg/kg) of a test substance which causes the specific binding of flunitrazepam to benzodiazepine receptors in a living brain to be reduced to 50% of the control value.
Such an in vivo test is carried out as described in US 4,774,245.

Compound	ED50 [mg/kg]
c1ccc2c(c1)c(N1CCOCC1)nc1c(-c3noc(C4CC4)n3)ncn12 [Compound 14, 3-(5-cyclopropyl-1,2,4-oxadiazol-3-yl)-5-morpholino-imidazo[1,5-a]quinazoline]	1.9
c1ccc2c(c1)c(N1CCOCC1)nc1c(-c3nc(C4CC4)no3)ncn12 [Compound 19, 3-(3-cyclopropyl-1,2,4-oxadiazol-5-yl)-5-morpholino-imidazo[1,5-a]quinazoline]	1.6
CN(C)c1nc2c(-c3noc(C4CC4)n3)ncn2c2ccccc12 [Compound 13, 3-(5-cyclopropyl-1,2,4-oxadiazol-3-yl)-5-dimethylamino-imidazo[1,5-a]quinazoline]	1.5
CN(C)c1nc2ccccc2n2cnc(-c3noc(C4CC4)n3)c12.Cl [Compound 4, 3-(5-cyclopropyl-1,2,4-oxadiazol-3-yl)-4-dimethylamino-imidazo[1,5-a]quinoxaline hydrochloride]	4.1
